In ChEMBL document CHEMBL1152450 (J Med Chem, 2009) one finds EC50 and IC50 data, which are given here for eleven compounds.

Structures are written as SMILES.

The first assay relates to SARS-CoV. Put plainly: Antiviral activity against SARS coronavirus in african green monkey Vero E6 cells assessed as inhibition of replication after 48 hrs. The format is functional, organism-based, Severe acute respiratory syndrome-related coronavirus. The following applies: Severe acute respiratory syndrome-related coronavirus, Vero, 48 h; read-out: EC50.
As usually defined, the EC50 is the midpoint of the concentration-response curve. In the case of `CNCc1ccc(C)c(C(=O)N[C@H](C)c2cccc3ccccc23)c1`, the concentration for a half-maximal effect (EC50) came to 5.2 µM.

With `Cc1ccc(CN)cc1C(=O)N[C@H](C)c1cccc2ccccc12`, the concentration for a half-maximal effect (EC50) was determined as 6 µM.

Still in this assay, the particulars now being: vero.
On to `Cc1ccc(CNC(=O)OC(C)(C)C)cc1C(=O)N[C@H](C)c1cccc2ccccc12`, for which the EC50 entry is listed as “Not Active”. `Cc1ccccc1C(=O)N[C@H](C)c1ccc2ccccc2c1`: the half-maximal effective concentration (EC50) entry is “Not Active”. The same measure, in the same setting: the result for `Cc1ccc(N)cc1C(=O)NC(C)(C)c1cccc2ccccc12` reads “Not Active”; that for `Cc1cccc(C(=O)N[C@H](C)c2ccc3ccccc3c2)c1`, “Not Active”; that for `Cc1ccccc1C(=O)NC(C)c1ccc2ccccc2c1` (racemic), “Not Active”.

Tested on in a further assay: not listed separately
The assay can be described thus: Inhibition of SARS coronavirus PLpro residues 1541-1855 expressed in Escherichia coli.
Conditions: not given; call rule not given here
On the set-up: species or system Severe acute respiratory syndrome-related coronavirus.
On to `C[C@@H](NC(=O)c1ccccc1O)c1ccc2ccccc2c1`, for which the IC50 entry is “Not Active”. Consider `C[C@@H](NC(=O)c1ccc(NC(=O)OC(C)(C)C)cc1)c1ccc2ccccc2c1`, for which the IC50 result was “Not Active”. Still for that read-out and setting: the result for `CCC(NC(=O)c1ccccc1C)c1ccc2ccccc2c1` (racemic) reads “Not Active”; that for `Cc1ccccc1C(=O)NC(c1ccccc1)c1ccc2ccccc2c1` (racemic), “Not Active”.
